Test results as given in ChEMBL document CHEMBL4138123, “Design, synthesis and biological evaluation of novel pyrazolochalcones as potential modulators of PI3K/Akt/mTOR pathway and inducers of apoptosis in breast cancer cells” (Eur J Med Chem, 2017).

Key:
Assay type in all cases: functional
ACHN [1] = experiment: Cytotoxicity against human ACHN cells assessed as cell growth at 10 uM after 48 hrs by sulforhodamine B assay relative to control; conditions: read-out: Activity
HT-29 [2] = experiment: Cytotoxicity against human HT-29 cells assessed as cell growth at 0.01 uM after 48 hrs by sulforhodamine B assay relative to control; conditions: HT-29, 48 h, read-out: Activity
KM12 [3] = experiment: Cytotoxicity against human KM12 cells assessed as growth inhibition after 48 hrs by sulforhodamine B assay; conditions: KM12, 48 h
Malme-3M [4] = experiment: Cytotoxicity against human MALME-3M cells assessed as cell growth at 0.01 uM after 48 hrs by sulforhodamine B assay relative to control; conditions: read-out: Activity
Malme-3M [5] = experiment: Cytotoxicity against human MALME-3M cells assessed as cell growth at 100 uM after 48 hrs by sulforhodamine B assay relative to control; conditions: read-out: Activity
BT-549 = experiment: Cytotoxicity against human BT549 cells assessed as cell growth at 10 uM after 48 hrs by sulforhodamine B assay relative to control; conditions: BT-549, 48 h, read-out: Activity
SF-539 = experiment: Cytotoxicity against human SF539 cells assessed as cell growth at 0.1 uM after 48 hrs by sulforhodamine B assay relative to control; conditions: SF-539, 48 h, read-out: Activity
TK-10 [6] = experiment: Cytotoxicity against human TK10 cells assessed as cell growth at 0.1 uM after 48 hrs by sulforhodamine B assay relative to control; conditions: TK-10, 48 h, read-out: Activity
NCI-H226 = experiment: Cytotoxicity against human NCI-H226 cells assessed as cell growth at 100 uM after 48 hrs by sulforhodamine B assay relative to control; conditions: NCI-H226, 48 h, read-out: Activity
MDA-MB-435 = experiment: Cytotoxicity against human MDA-MB-435 cells assessed as cell growth at 100 uM after 48 hrs by sulforhodamine B assay relative to control; conditions: MDA-MB-435, 48 h, read-out: Activity
MDA-MB-468 [7] = experiment: Cytotoxicity against human MDA-MB-468 cells assessed as cell growth at 100 uM after 48 hrs by sulforhodamine B assay relative to control; conditions: MDA-MB-468, 48 h, read-out: Activity
Malme-3M [8] = experiment: Cytotoxicity against human MALME-3M cells assessed as cell growth at 10 uM after 48 hrs by sulforhodamine B assay relative to control; conditions: read-out: Activity
RPMI-8226 = experiment: Cytotoxicity against human RPMI8226 cells assessed as cell growth at 1 uM after 48 hrs by sulforhodamine B assay relative to control; conditions: RPMI-8226, 48 h, read-out: Activity
RXF 393 = experiment: Cytotoxicity against human RXF393 cells assessed as cell growth at 1 uM after 48 hrs by sulforhodamine B assay relative to control; conditions: RXF 393, 48 h, read-out: Activity
HCC 2998 = experiment: Cytotoxicity against human HCC2998 cells assessed as cell growth at 1 uM after 48 hrs by sulforhodamine B assay relative to control; conditions: HCC 2998, 48 h, read-out: Activity
MCF7 = experiment: Cytotoxicity against human MCF7 cells assessed as growth inhibition after 48 hrs by sulforhodamine B assay; conditions: MCF7, 48 h
ACHN [9] = experiment: Cytotoxicity against human ACHN cells assessed as cell growth at 100 uM after 48 hrs by sulforhodamine B assay relative to control; conditions: read-out: Activity
NCI-H23 = experiment: Cytotoxicity against human NCI-H23 cells assessed as cell growth at 0.01 uM after 48 hrs by sulforhodamine B assay relative to control; conditions: NCI-H23, 48 h, read-out: Activity
TK-10 [10] = experiment: Cytotoxicity against human TK10 cells assessed as cell growth at 0.01 uM after 48 hrs by sulforhodamine B assay relative to control; conditions: TK-10, 48 h, read-out: Activity
KM12 [11] = experiment: Cytotoxicity against human KM12 cells assessed as cell growth at 1 uM after 48 hrs by sulforhodamine B assay relative to control; conditions: KM12, 48 h, read-out: Activity
MDA-MB-468 [12] = experiment: Cytotoxicity against human MDA-MB-468 cells assessed as cell growth at 10 uM after 48 hrs by sulforhodamine B assay relative to control; conditions: MDA-MB-468, 48 h, read-out: Activity
CCRF-CEM = experiment: Cytotoxicity against human CCRF-CEM cells assessed as cell growth at 100 uM after 48 hrs by sulforhodamine B assay relative to control; conditions: read-out: Activity
HCT-116 = experiment: Cytotoxicity against human HCT116 cells assessed as cell growth at 10 uM after 48 hrs by sulforhodamine B assay relative to control; conditions: HCT-116, 48 h, read-out: Activity
NCI/ADR-RES = experiment: Cytotoxicity against human NCI/ADR-RES cells assessed as cell growth at 100 uM after 48 hrs by sulforhodamine B assay relative to control; conditions: read-out: Activity
TK-10 [13] = experiment: Cytotoxicity against human TK10 cells assessed as growth inhibition after 48 hrs by sulforhodamine B assay; conditions: TK-10, 48 h
HT-29 [14] = experiment: Cytotoxicity against human HT-29 cells assessed as cell growth at 100 uM after 48 hrs by sulforhodamine B assay relative to control; conditions: HT-29, 48 h, read-out: Activity
K562 [15] = experiment: Cytotoxicity against human K562 cells assessed as cell growth at 0.1 uM after 48 hrs by sulforhodamine B assay relative to control; conditions: K562, 48 h, read-out: Activity
K562 [16] = experiment: Cytotoxicity against human K562 cells assessed as cell growth at 100 uM after 48 hrs by sulforhodamine B assay relative to control; conditions: K562, 48 h, read-out: Activity
786-0 = experiment: Cytotoxicity against human 786-0 cells assessed as cell growth at 10 uM after 48 hrs by sulforhodamine B assay relative to control; conditions: 786-0, 48 h, read-out: Activity
ACHN [17] = experiment: Cytotoxicity against human ACHN cells assessed as cell growth at 0.01 uM after 48 hrs by sulforhodamine B assay relative to control; conditions: read-out: Activity
SK-MEL-28 = experiment: Cytotoxicity against human SK-MEL-28 cells assessed as cell growth at 0.01 uM after 48 hrs by sulforhodamine B assay relative to control; conditions: SK-MEL-28, 48 h, read-out: Activity
HCT-15 = experiment: Cytotoxicity against human HCT15 cells assessed as growth inhibition after 48 hrs by sulforhodamine B assay; conditions: HCT-15, 48 h
UO-31 = experiment: Cytotoxicity against human UO31 cells assessed as cell growth at 0.01 uM after 48 hrs by sulforhodamine B assay relative to control; conditions: UO-31, 48 h, read-out: Activity
A549 = experiment: Cytotoxicity against human A549/ATCC cells assessed as cell growth at 10 uM after 48 hrs by sulforhodamine B assay relative to control; conditions: A549, 48 h, read-out: Activity
MOLT-4 = experiment: Cytotoxicity against human MOLT4 cells assessed as cell growth at 10 uM after 48 hrs by sulforhodamine B assay relative to control; conditions: MOLT-4, 48 h, read-out: Activity
SK-OV-3 = experiment: Cytotoxicity against human SKOV3 cells assessed as cell growth at 1 uM after 48 hrs by sulforhodamine B assay relative to control; conditions: SK-OV-3, 48 h, read-out: Activity

COc1cc(-c2cc(/C=C/C(=O)c3ccc(N)cc3)[nH]n2)cc(OC)c1OC
growth at 10 µM (ACHN [1]): -61%
growth at 0.01 µM (HT-29 [2]): 98%
GI50 (KM12 [3]): 1.41 µM
LC50 (KM12 [3]): 7.27 µM
TGI (KM12 [3]): 2.88 µM
growth at 0.01 µM (Malme-3M [4]): 98%
growth at 100 µM (Malme-3M [5]): -76%
growth at 10 µM (BT-549): -89%
growth at 0.1 µM (SF-539): 99%
growth at 0.1 µM (TK-10 [6]): 100%
growth at 100 µM (NCI-H226): -59%
growth at 100 µM (MDA-MB-435): -85%
growth at 100 µM (MDA-MB-468 [7]): -65%
growth at 10 µM (Malme-3M [8]): -45%
growth at 1 µM (RPMI-8226): 28%
growth at 1 µM (RXF 393): 67%
growth at 1 µM (HCC 2998): 110%
GI50 (MCF7): 1.5 µM
LC50 (MCF7): 60.5 µM
TGI (MCF7): 5.42 µM
growth at 100 µM (ACHN [9]): -63%
growth at 0.01 µM (NCI-H23): 102%
growth at 0.01 µM (TK-10 [10]): 102%
growth at 1 µM (KM12 [11]): 57%
growth at 10 µM (MDA-MB-468 [12]): -58%
growth at 100 µM (CCRF-CEM): -21%
growth at 10 µM (HCT-116): -78%
growth at 100 µM (NCI/ADR-RES): -3%
GI50 (TK-10 [13]): 4.84 µM
LC50 (TK-10 [13]): 51.6 µM
TGI (TK-10 [13]): 17.5 µM
growth at 100 µM (HT-29 [14]): -49%
growth at 0.1 µM (K562 [15]): 94%
growth at 100 µM (K562 [16]): -3%
growth at 10 µM (786-0): -19%
growth at 0.01 µM (ACHN [17]): 95%
growth at 0.01 µM (SK-MEL-28): 89%
GI50 (HCT-15): 1.37 µM
LC50 (HCT-15): > 100 µM
TGI (HCT-15): 6.76 µM
growth at 0.01 µM (UO-31): 91%
growth at 10 µM (A549): -15%
growth at 10 µM (MOLT-4): -5%
growth at 1 µM (SK-OV-3): 104%

COc1cc2c(cc1OC)C(=O)/C(=C/c1cc(-c3ccc4c(c3)OCO4)n[nH]1)C2
growth at 10 µM (ACHN [1]): -90%
growth at 0.01 µM (HT-29 [2]): 98%
GI50 (KM12 [3]): 1.29 µM
LC50 (KM12 [3]): 5.75 µM
TGI (KM12 [3]): 2.73 µM
growth at 0.01 µM (Malme-3M [4]): 93%
growth at 100 µM (Malme-3M [5]): -81%
growth at 10 µM (BT-549): -94%
growth at 0.1 µM (SF-539): 92%
growth at 0.1 µM (TK-10 [6]): 88%
growth at 100 µM (NCI-H226): -46%
growth at 100 µM (MDA-MB-435): -95%
growth at 100 µM (MDA-MB-468 [7]): -86%
growth at 10 µM (Malme-3M [8]): -70%
growth at 1 µM (RPMI-8226): -24%
growth at 1 µM (RXF 393): 80%
growth at 1 µM (HCC 2998): 102%
GI50 (MCF7): 0.33 µM
LC50 (MCF7): 4.52 µM
TGI (MCF7): 1.42 µM
growth at 100 µM (ACHN [9]): -89%
growth at 0.01 µM (NCI-H23): 93%
growth at 0.01 µM (TK-10 [10]): 88%
growth at 1 µM (KM12 [11]): 67%
growth at 10 µM (MDA-MB-468 [12]): -87%
growth at 100 µM (CCRF-CEM): -38%
growth at 10 µM (HCT-116): -75%
growth at 100 µM (NCI/ADR-RES): -40%
GI50 (TK-10 [13]): 1.89 µM
LC50 (TK-10 [13]): 5.96 µM
TGI (TK-10 [13]): 3.36 µM
growth at 100 µM (HT-29 [14]): -70%
growth at 0.1 µM (K562 [15]): 94%
growth at 100 µM (K562 [16]): 4%
growth at 10 µM (786-0): -98%
growth at 0.01 µM (ACHN [17]): 104%
growth at 0.01 µM (SK-MEL-28): 104%
GI50 (HCT-15): 1.12 µM
LC50 (HCT-15): 7.07 µM
TGI (HCT-15): 2.81 µM
growth at 0.01 µM (UO-31): 86%
growth at 10 µM (A549): -30%
growth at 10 µM (MOLT-4): -18%
growth at 1 µM (SK-OV-3): 109%
